Assay results published in US11104648B2, “Pyrazole derivative” (Zhejiang Research Institute of Chemical Industry Co., Ltd., priority 2018, dated 2021).
Read-outs that look alike come from different tables or passages of the source.

Legend:
Format in all cases: in vivo
[1] = system: Tetranychus cinnabarinus Nymphs; experiment: Activity assay of Tetranychus cinnabarinus nymphs (spray on broad bean leaves)
Method in brief: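 Compound in DMF (≤10%) diluted in 1‰ Tween 80 water was sprayed onto broad bean leaves carrying nymphs hatched from eggs laid by female adults over 24 h. Kept at 26±2° C., 70%–80% humidity, 16 h light; mortality (no response to touch) assessed after 48 h, three replicates with blank control.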

[2] = system: Eggs of Tetranychus Cinnabarinus; experiment: Activity assay of eggs of Tetranychus cinnabarinus (spray method, ovicidal); conditions: Tetranychus cinnabarinus; for pest or weed control at 2 µg/mL: concentration 2 mg/L; for pest or weed control at 5 µg/mL: concentration 5 mg/L, non-incubated eggs counted as dead
Method in brief: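 Female mites laid eggs on broad bean leaves for 24 h, adults removed, eggs sprayed with compound in DMF (≤10%)/1‰ Tween 80. Held at 26±2° C, 70–80% humidity, 16 h light; unhatched eggs counted dead once blank control hatched. Three replicates.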

[3] = system: adult Tetranychus cinnabarinus; experiment: Activity assay of adult Tetranychus cinnabarinus (whole-plant spray on bean seedlings); conditions: 48 h; for pest or weed control at 1.25 µg/mL: concentration 1.25 mg/L; for pest or weed control at 2.5 µg/mL: concentration 2.5 mg/L
Method in brief: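 Bean seedlings at two-true-leaf stage, infested with adult mites and base count taken, sprayed whole-plant with compound in DMF (≤10%) diluted in 1‰ Tween 80. Three replicates per treatment kept in standard observation room. Surviving mites counted at 48 h to give death rate.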

[4] = 48 h, concentration 2 mg/L, read-out: nymph-killing activity
[5] = 48 h, concentration 2.5 mg/L, read-out: nymph-killing activity
[6] = spray, read-out: ovicidal activity
[7] = read-out: adult mite-killing activity
[8] = 48 h, nymphs, concentration 0.5 mg/L, parallel determination, read-out: Death rate (%)
[9] = eggs, parallel determination, read-out: Death rate (%)
[10] = adult mites, parallel determination, read-out: Death rate (%)

Compound | pest or weed control at 2.5 µg/mL [1, 5] [%] | pest or weed control at 5 µg/mL [2, 6] [%] | pest or weed control at 2.5 µg/mL [3, 7] [%] | further results
CCCCCOC(=O)OCO/C(=C(/C#N)c1ccc(C(C)(C)C)cc1)c1c(C)c(C)nn1CC [Compound 940] | ≥ 95 | ≥ 90 | ≥ 90 | pest or weed control at 2 µg/mL [1, 4]: ≥ 90%; pest or weed control at 2 µg/mL [2, 6]: ≥ 90%; pest or weed control at 1.25 µg/mL [3, 7]: ≥ 90%
C#CCOC(=O)OC(C)O/C(=C(/C#N)c1ccc(C(C)(C)C)cc1)c1cc(C)nn1CC (stereo not drawn) [Compound 604] | ≥ 95 | ≥ 90 | ≥ 90 | –
CSCCOC(=O)OC(C)O/C(=C(/C#N)c1ccc(C(C)(C)C)cc1)c1cc(C)nn1C (stereo not drawn) [Compound 503] | ≥ 95 | ≥ 90 | ≥ 90 | –
CCn1nc(C)c(C)c1/C(OCOC(=O)CSC)=C(\C#N)c1ccc(C(C)(C)C)cc1 [Compound 385] | ≥ 95 | ≥ 90 | ≥ 90 | –
CCOC(=O)OCO/C(=C(/C#N)c1ccc(C(C)(C)C)cc1)c1cc(C)nn1C [Compound 452] | ≥ 95 | ≥ 90 | ≥ 90 | –
CCn1nc(C)c(C)c1/C(OC(C)OC(=O)C(F)(F)F)=C(\C#N)c1ccc(C(C)(C)C)cc1 (stereo not drawn) [Compound 413] | ≥ 95 | ≥ 90 | ≥ 90 | –
CCn1nc(C)cc1/C(OCOC(C)=O)=C(\C#N)c1ccc(C(C)(C)C)cc1 [Compound 226] | ≥ 95 | ≥ 90 | ≥ 90 | pest or weed control at 2 µg/mL [1, 4]: ≥ 90%; pest or weed control at 0.5 µg/mL [1, 8]: 90%; pest or weed control at 2 µg/mL [2, 6]: ≥ 90%; pest or weed control at 2 µg/mL [2, 9]: 100%; pest or weed control at 1.25 µg/mL [3, 10]: 96%; pest or weed control at 1.25 µg/mL [3, 7]: ≥ 90%
CCCCCOC(=O)OCO/C(=C(/C#N)c1ccc(C(C)(C)C)cc1)c1cc(C)nn1C [Compound 460] | ≥ 95 | ≥ 90 | ≥ 90 | –
CC(C)(C)C(=O)OCOC(=C(C#N)c1ccc(C(C)(C)C)cc1)c1ccccc1C(F)(F)F [Compound 8-1, reference compound] | < 80 | < 30 | < 80 | pest or weed control at 0.5 µg/mL ([1]; 48 h, concentration 0.5 mg/L, read-out: nymph-killing activity): < 30%; pest or weed control at 0.5 µg/mL [1, 8]: 25%; pest or weed control at 2 µg/mL [2, 6]: 0%; pest or weed control at 2 µg/mL [2, 9]: 0%; pest or weed control at 1.25 µg/mL [3, 10]: 45%; pest or weed control at 1.25 µg/mL [3, 7]: < 50%
Cc1cc(/C(OCOC(=O)Cc2ccccc2)=C(\C#N)c2ccc(C(C)(C)C)cc2)n(C)n1 [Compound 15] | – | ≥ 90 | ≥ 90 | pest or weed control at 2.5 µg/mL ([1]; concentration 2.5 mg/L, 48 h, read-out: nymph-killing activity): ≥ 95%
CCn1nc(C)cc1/C(OCOC(=O)C(F)(F)F)=C(\C#N)c1ccc(C(C)(C)C)cc1 [Compound 238] | ≥ 95 | ≥ 90 | ≥ 90 | –
CCn1nc(C)c(C)c1/C(OC(C)OC(=O)C(C)(C)C)=C(\C#N)c1ccc(C(C)(C)C)cc1 (stereo not drawn) [Compound 405] | ≥ 95 | ≥ 90 | ≥ 90 | pest or weed control at 2 µg/mL [1, 4]: ≥ 90%; pest or weed control at 2 µg/mL [2, 6]: ≥ 90%; pest or weed control at 1.25 µg/mL [3, 7]: ≥ 90%
CCn1nc(C)c(C)c1/C(OCOC(=O)C1CC1)=C(\C#N)c1ccc(C(C)(C)C)cc1 [Compound 384] | ≥ 95 | ≥ 90 | ≥ 90 | –
CCn1nc(C)c(Cl)c1/C(OCOC(=O)OC)=C(\C#N)c1ccc(C(C)(C)C)cc1 [Compound 739] | ≥ 95 | ≥ 90 | ≥ 90 | –
CCn1nc(C)cc1/C(OC(C)OC(=O)OCCC(C)C)=C(\C#N)c1ccc(C(C)(C)C)cc1 (stereo not drawn) [Compound 586] | ≥ 95 | ≥ 90 | ≥ 90 | –
CCn1nc(C)c(Cl)c1/C(OC(C)OC(=O)C(C)(C)CC)=C(\C#N)c1ccc(C(C)(C)C)cc1 (stereo not drawn) [Compound 341] | ≥ 95 | ≥ 90 | ≥ 90 | –
COC(=O)COC(=O)OC(C)O/C(=C(/C#N)c1ccc(C(C)(C)C)cc1)c1cc(C)nn1C (stereo not drawn) [Compound 509] | ≥ 95 | ≥ 90 | ≥ 90 | –
CCn1nc(C)c(Cl)c1/C(OCOC(=O)c1ccccc1)=C(\C#N)c1ccc(C(C)(C)C)cc1 [Compound 314] | ≥ 95 | ≥ 90 | ≥ 90 | –
CCC(=O)OCO/C(=C(/C#N)c1ccc(C(C)(C)C)cc1)c1c(C)c(C)nn1C [Compound 152] | ≥ 95 | ≥ 90 | ≥ 90 | –
CSCC(=O)OC(C)O/C(=C(/C#N)c1ccc(C(C)(C)C)cc1)c1cc(C)nn1C (stereo not drawn) [Compound 35] | ≥ 95 | ≥ 90 | ≥ 90 | –
CCn1nc(C)c(C)c1/C(OC(C)OC(=O)OC)=C(\C#N)c1ccc(C(C)(C)C)cc1 (stereo not drawn) [Compound 963] | ≥ 95 | ≥ 90 | ≥ 90 | pest or weed control at 2 µg/mL [1, 4]: ≥ 90%; pest or weed control at 2 µg/mL [2, 6]: ≥ 90%; pest or weed control at 1.25 µg/mL [3, 7]: ≥ 90%
CCn1nc(C)c(C)c1/C(OCOC(=O)CC(C)C)=C(\C#N)c1ccc(C(C)(C)C)cc1 [Compound 382] | ≥ 95 | ≥ 90 | ≥ 90 | –
CCCCCOC(=O)OCO/C(=C(/C#N)c1ccc(C(C)(C)C)cc1)c1cc(C)nn1CC [Compound 556] | ≥ 95 | ≥ 90 | ≥ 90 | –
CCn1nc(C)cc1/C(OCOC(=O)SCC(=O)OC)=C(\C#N)c1ccc(C(C)(C)C)cc1 [Compound 577] | ≥ 95 | ≥ 90 | ≥ 90 | –
CCCC(=O)OCO/C(=C(/C#N)c1ccc(C(C)(C)C)cc1)c1cc(C)nn1C [Compound 3] | ≥ 95 | ≥ 90 | ≥ 90 | –
CCCCC(=O)OC(C)O/C(=C(/C#N)c1ccc(C(C)(C)C)cc1)c1c(Cl)c(C)nn1CC (stereo not drawn) [Compound 331] | ≥ 95 | ≥ 90 | ≥ 90 | –
CCCCC(=O)OCO/C(=C(/C#N)c1ccc(C(C)(C)C)cc1)c1c(Cl)c(C)nn1CC [Compound 306] | ≥ 95 | ≥ 90 | ≥ 90 | –
Cc1nn(C)c(/C(OCOC(=O)CC(C)C)=C(\C#N)c2ccc(C(C)(C)C)cc2)c1Cl [Compound 82] | ≥ 95 | ≥ 90 | ≥ 90 | –
